This assay addresses T1, human DGAT1 (Homo sapiens, UniProt O75907).
T1 sequence (O75907 1-488): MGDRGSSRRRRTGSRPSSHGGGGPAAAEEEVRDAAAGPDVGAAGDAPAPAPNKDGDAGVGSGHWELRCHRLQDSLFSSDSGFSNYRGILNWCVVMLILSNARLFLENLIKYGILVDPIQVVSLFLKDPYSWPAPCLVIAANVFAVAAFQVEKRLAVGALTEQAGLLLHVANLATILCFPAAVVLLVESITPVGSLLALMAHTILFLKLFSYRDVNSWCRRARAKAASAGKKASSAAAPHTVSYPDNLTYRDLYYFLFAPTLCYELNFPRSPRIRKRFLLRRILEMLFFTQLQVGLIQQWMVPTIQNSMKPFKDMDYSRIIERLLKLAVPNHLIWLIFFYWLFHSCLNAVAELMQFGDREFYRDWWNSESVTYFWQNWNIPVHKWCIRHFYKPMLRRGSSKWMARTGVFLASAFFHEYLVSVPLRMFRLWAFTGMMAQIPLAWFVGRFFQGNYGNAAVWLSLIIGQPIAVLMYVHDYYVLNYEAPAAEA
Nature of the assay: DGAT1 CPM Assay. The format is biochemical. The conditions noted are these: human DGAT1, CPM fluorescence, 1 hour incubation at room temperature. The procedure: 20 uL of 90 uM CPM reagent in 90% ethanol was added after 1 hour incubation at room temperature.
Broadly, the IC50 is the concentration needed to halve the response being measured. High values mean a need for much substance, low ones inhibition by little substance. As for `O=C(O)C[C@H]1CC[C@@H](OC2CCN(c3ccc(-c4nc5cc(F)ccc5[nH]4)cn3)C2)CC1` (single isomer, unassigned) [Example 139], the IC50 amounted to 12 nM.

With `O=C(O)C[C@H]1CC[C@@H](OC2CCN(c3ccc(-c4nc5cc(F)ccc5[nH]4)cn3)C2)CC1` (single isomer, unassigned) [Example 140], the IC50 amounted to 89 nM. Regarding `O=C(O)C[C@H]1CC[C@@H](O[C@H]2C[C@H]3C[C@@H]2CN3c2ccc(-c3nc4cc(F)ccc4[nH]3)cn2)CC1` (single isomer, unassigned; enantiomer 1) [Example 28, [cis-4-({2-[5-(5-fluoro-1-benzimidazol-2-yl)pyridin-2-yl]-2-azabicyclo[2.2.1]hept-5-yl}oxy)cyclohexyl]acetic acid enantiomer 1], half-maximal inhibition (IC50) required 23 nM.

`O=C(O)C[C@H]1CC[C@@H](O[C@@H]2CC3C[C@H]2CN3c2ccc(-c3nc4cc(F)ccc4[nH]3)cn2)CC1` (single isomer, unassigned; enantiomer 2) [Example 29, [cis-4-({2-[5-(5-fluoro-1H-benzimidazol-2-yl)pyridin-2-yl]-2-azabicyclo[2.2.1]hept-5-yl}oxy)cyclohexyl]acetic acid enantiomer 2] came in with an IC50 of 5000 nM. Consider `O=C(O)C[C@H]1CC[C@H](OC2CCN(c3ccc(-c4nc5ccc(F)cc5[nH]4)cn3)CC2)CC1` [Example 1, [trans-4-({1-[5-(6-fluoro-1H-benzimidazol-2-yl)pyridin-2-yl]piperidin-4-yl}oxy)cyclohexyl]acetic acid], for which the midpoint of inhibition, the IC50, lay at 6 nM. With `O=C(O)C[C@H]1CC[C@@H](OC2CCN(c3ccc(-c4nc5ccc(F)cc5[nH]4)cn3)CC2)CC1` [Example 2, [cis-4-({1-[5-(6-fluoro-1H-benzimidazol-2-yl)pyridin-2-yl]piperidin-4-yl}oxy)cyclohexyl]acetic acid], the IC50 amounted to 8 nM. Then `CCOc1ccc2nc(-c3ccc(N4CCC(O[C@H]5CC[C@H](CC(=O)O)CC5)CC4)nc3)[nH]c2n1` [Example 4, [trans-4-({1-[5-(5-ethoxy-3H-imidazo[4,5-b]pyridin-2-yl)pyridin-2-yl]piperidin-4-yl}oxy)cyclohexyl]acetic acid], with 27 nM; and `O=C(O)C[C@H]1CC[C@@H](OC2CCN(c3ccc(-c4nc5ccc(C(F)(F)F)cc5[nH]4)cn3)CC2)CC1` [Example 5], with 5 nM. Then `O=C(O)C[C@H]1CC[C@H](OC2CCN(c3ccc(-c4nc5ccccc5[nH]4)cn3)CC2)CC1` [Example 7], with 19 nM; and `O=C(O)C[C@H]1CC[C@@H](OC2CCN(c3ccc(-c4nc5ccccc5[nH]4)cn3)CC2)CC1` [Example 8], with 15 nM. In turn, `CCOc1ccc2nc(-c3ccc(N4CCC(O[C@H]5CC[C@@H](CC(=O)O)CC5)CC4)nc3)[nH]c2n1` [Example 9] had an IC50 of 20 nM. For the compound `Cc1nc(N2CCC(O[C@H]3CC[C@H](CC(=O)O)CC3)CC2)ccc1-c1nc2ccccc2[nH]1` [Example 10], the midpoint of inhibition, the IC50, lay at 7900 nM. Consider `Cc1nc(N2CCC(O[C@H]3CC[C@@H](CC(=O)O)CC3)CC2)ccc1-c1nc2ccccc2[nH]1` [Example 11], for which inhibition was half-maximal at 6600 nM (IC50).

`Cc1cc(N2CCC(O[C@H]3CC[C@H](CC(=O)O)CC3)CC2)ncc1-c1nc2ccccc2[nH]1` [Example 12] returned an IC50 of 349 nM.

`Cc1cc(N2CCC(O[C@H]3CC[C@@H](CC(=O)O)CC3)CC2)ncc1-c1nc2ccccc2[nH]1` [Example 13]: the IC50 was found to be 147 nM. The compound `O=C(O)C[C@H]1CC[C@H](OC2CCN(c3ccc(-c4nc5cccc(Br)c5[nH]4)cn3)CC2)CC1` [Example 14] registered an IC50 of 7 nM. `O=C(O)C[C@H]1CC[C@H](OC2CCN(c3ccc(-c4nc5cc(F)c(F)c(Br)c5[nH]4)cn3)CC2)CC1` [Example 15] showed an IC50 of 2 nM. The compound `O=C(O)C[C@H]1CC[C@H](OC2CCN(c3ccc(-c4nc5cc(F)c(F)cc5[nH]4)cn3)CC2)CC1` [Example 16, [trans-4-({1-[5-(5,6-difluoro-1H-benzimidazol-2-yl)pyridin-2-yl]piperidin-4-yl}oxy)cyclohexyl]acetic acid] had an IC50 of 4 nM. As for `O=C(O)C[C@H]1CC[C@H](OC2CCN(c3ccc(-c4nc5cc(C(F)(F)F)cnc5[nH]4)cn3)CC2)CC1` [Example 17], the figure is 24 nM; as for `N#Cc1ccc2[nH]c(-c3ccc(N4CCC(O[C@H]5CC[C@H](CC(=O)O)CC5)CC4)nc3)nc2c1` [Example 18], 26 nM; as for `O=C(O)C[C@H]1CC[C@H](OC2CCN(c3ccc(-c4nc5cc(Cl)ccc5[nH]4)cn3)CC2)CC1` [Example 19], 3 nM. Compound `O=C(O)C[C@H]1CC[C@H](OC2CCN(c3ccc(-c4nc5cc(Cl)cnc5[nH]4)cn3)CC2)CC1` [Example 20] registered an IC50 of 61 nM. Against the preceding compound, the IC50 is about 20-fold higher. Then `Cc1ccc2[nH]c(-c3ccc(N4CCC(O[C@H]5CC[C@H](CC(=O)O)CC5)CC4)nc3)nc2n1` [Example 21], with 440 nM; and `COc1ccc2[nH]c(-c3ccc(N4CCC(O[C@H]5CC[C@H](CC(=O)O)CC5)CC4)nc3)nc2n1` [Example 22], with 51 nM. Then `O=C(O)C[C@H]1CC[C@H](OC2CCN(c3ccc(-c4nc5nc(C(F)(F)F)ccc5[nH]4)cn3)CC2)CC1` [Example 23], with 16 nM; and `CCCCc1ccc2nc(-c3ccc(N4CCC(O[C@H]5CC[C@@H](CC(=O)O)CC5)CC4)nc3)[nH]c2c1` [Example 24, [cis-4-({1-[5-(6-butyl-1H-benzimidazol-2-yl)pyridin-2-yl]piperidin-4-yl}oxy)cyclohexyl]acetic acid], with 4 nM; and `O=C(O)C[C@H]1CC[C@@H](OC2CCN(c3ccc(-c4nc5cc(F)c(F)cc5[nH]4)cn3)CC2)CC1` [Example 25], with 3 nM. As for `O=C(O)C[C@H]1CC[C@@H](OC2CCN(c3ccc(-c4nc5cc(Cl)ccc5[nH]4)cn3)CC2)CC1` [Example 26], the figure is 3 nM.

In the case of `O=C(O)C[C@H]1CC[C@@H](OC2CCN(c3ccc(-c4nc5nc(C(F)(F)F)ccc5[nH]4)cn3)CC2)CC1` [Example 27], the half-maximal inhibitory concentration (IC50) amounted to 13 nM.

On to `O=C(O)[C@H]1C[C@@H](OC2CCN(c3ccc(-c4nc5ccc(C(F)(F)F)cc5[nH]4)cn3)CC2)C1` [Example 32, cis-3-[(1-{5-[6-(trifluoromethyl)-1H-benzimidazol-2-yl]pyridin-2-yl}piperidin-4-yl)oxy]cyclobutanecarboxylic acid], for which the half-inhibitory concentration (IC50) amounted to 9 nM. This IC50 and that of the compound before are within 1.5-fold of each other. As for `O=C(O)[C@H]1C[C@H](OC2CCN(c3ccc(-c4nc5ccc(C(F)(F)F)cc5[nH]4)cn3)CC2)C1` [Example 33, trans-3-[(1-{5-[6-(trifluoromethyl)-1H-benzimidazol-2-yl]pyridin-2-yl}piperidin-4-yl)oxy]cyclobutanecarboxylic acid], the figure is 7 nM.

In the case of `CC(C)(COC1CCN(c2ccc(-c3nc4cc(C(F)(F)F)ccc4[nH]3)cn2)CC1)C(=O)O` [Example 34], the IC50 is 4 nM. `COC(=O)C(C)(C)COC1CCN(c2ccc(-c3nc4ccccc4[nH]3)cn2)CC1` [Example 35] registered an IC50 of 29 nM. Compared with the last compound, the IC50 is about 7.2-fold higher. On to `CC(C)(COC1CCN(c2ccc(-c3nc4ccccc4[nH]3)cn2)CC1)C(=O)O` [Example 36], for which inhibition was half-maximal at 67 nM (IC50). For `O=C(O)C1(COC2CCN(c3ccc(-c4nc5ccc(C(F)(F)F)cc5[nH]4)cn3)CC2)CCC1` [Example 37], it took 2 nM to reach half-maximal inhibition (IC50). With `O=C(O)C1(COC2CCN(c3ccc(-c4nc5ccc(C(F)(F)F)cc5[nH]4)cn3)CC2)CC1` [Example 38], the IC50 was 8 nM.

Take `O=C(O)C1(COC2CCN(c3ccc(-c4nc5ccc(F)cc5[nH]4)cn3)CC2)CCC1` [Example 39]: the IC50 was found to be 15 nM.

The compound `O=C(O)C1(COC2CCN(c3ccc(-c4nc5ccccc5[nH]4)cn3)CC2)CC1` [Example 41] registered an IC50 of 1200 nM.

Take `O=C(O)C1(COC2CCN(c3ccc(-c4nc5ccccc5[nH]4)cn3)CC2)CCC1` [Example 42]: 50 nM corresponded to half-maximal inhibition (IC50). As to `O=C(O)C1(COC2CCN(c3ccc(-c4nc5ccc(Cl)cc5[nH]4)cn3)CC2)CCC1` [Example 43], the IC50 amounted to 6 nM. Against the preceding compound, the IC50 is about 8.3-fold lower. As for `COc1ccc2nc(-c3ccc(N4CCC(OCC5(C(=O)O)CCC5)CC4)nc3)[nH]c2n1` [Example 44], the figure is 89 nM.

Take `O=C(O)C1(COC2CCN(c3ccc(-c4nc5ccc(C(F)(F)F)cc5[nH]4)cn3)CC2)CCOCC1` [Example 45]: the midpoint of inhibition, the IC50, lay at 7 nM. This IC50 is about 13-fold lower than that of the compound before. With `O=C(O)C1(COC2CCN(c3ccc(-c4nc5ccc(F)cc5[nH]4)cn3)CC2)CCOCC1` [Example 46], the IC50 came to 97 nM.

Compound `CC(C)(COC1CCN(c2ccc(-c3nc4cc(Cl)ccc4[nH]3)cn2)CC1)C(=O)O` [Example 47] displayed an IC50 of 5 nM. Turning to `COc1ccc2[nH]c(-c3ccc(N4CCC(OCC(C)(C)C(=O)O)CC4)nc3)nc2n1` [Example 48], the midpoint of inhibition, the IC50, lay at 60 nM. For `O=C(O)C1(COC2CCN(c3ccc(-c4nc5ccccc5[nH]4)cn3)CC2)CCOCC1` [Example 49], the IC50 is 220 nM. This IC50 is about 3.7-fold higher than that of the compound before. `O=C(O)C1(COC2CCN(c3ccc(-c4nc5ccc(Cl)cc5[nH]4)cn3)CC2)CCOCC1` [Example 50] came in with an IC50 of 17 nM.

As for `O=C(O)CC1CC(OC2CCN(c3ccc(-c4nc5ccc(C(F)(F)F)cc5[nH]4)cn3)CC2)C1` (centres unmarked) [Example 51], the half-inhibitory concentration (IC50) was found to be 6 nM. `O=C(O)CC1CC(OC2CCN(c3ccc(-c4nc5ccc(C(F)(F)F)cc5[nH]4)cn3)CC2)C1` (centres unmarked) [Example 52] returned an IC50 of 10 nM. For the compound `O=C(O)CC1CC(OC2CCN(c3ccc(-c4nc5cc(F)ccc5[nH]4)cn3)CC2)C1` (centres unmarked) [Example 53], the IC50 worked out at 56 nM.
